Experimental data: ChEMBL document CHEMBL2203120, “Contribution to investigation of antimicrobial activity of styrylquinolines” (Bioorg Med Chem, 2012)
≈ marks a conversion by molar mass, not a printed value.

Assays:
[1] = system: Staphylococcus aureus; assay: Antimicrobial activity against Staphylococcus aureus CCM 4516/08 after 24 hrs by broth microdilution method; assay type: functional; settings: CCM 4516/08, 24 h
[2] = system: Lichtheimia corymbifera; assay: Antimicrobial activity against Absidia corymbifera 272 after 48 hrs by broth microdilution test; assay type: functional; settings: Lichtheimia corymbifera, 272, 48 h
[3] = system: Candida tropicalis; assay: Antimicrobial activity against Candida tropicalis 156 after 24 hrs by broth microdilution test; assay type: functional; settings: Candida tropicalis, 156, 24 h
[4] = system: Staphylococcus epidermidis; assay: Antimicrobial activity against Staphylococcus epidermidis H 6966/08 after 24 hrs by broth microdilution method; assay type: functional; settings: H 6966/08, 24 h
[5] = system: Pichia kudriavzevii; assay: Antimicrobial activity against Candida krusei ATCC 6258 after 24 hrs by broth microdilution test; assay type: functional; settings: ATCC 6258, 24 h
[6] = system: Staphylococcus epidermidis; assay: Antimicrobial activity against Staphylococcus epidermidis H 6966/08 after 48 hrs by broth microdilution method; assay type: functional; settings: H 6966/08, 48 h
[7] = system: Trichophyton mentagrophytes; assay: Antimicrobial activity against Trichophyton mentagrophytes 445 after 120 hrs by broth microdilution test; assay type: functional; settings: Trichophyton mentagrophytes, 445, 120 h
[8] = Lipophilicity, log P of compound by RP-HPLC analysis; assay type: physicochemical
[9] = system: Staphylococcus aureus; assay: Antimicrobial activity against methicillin-resistant Staphylococcus aureus H 5996/08 after 48 hrs by broth microdilution method; assay type: functional; settings: H 5996/08, 48 h
[10] = system: Candida albicans; assay: Antimicrobial activity against Candida albicans ATCC 44859 after 24 hrs by broth microdilution test; assay type: functional; settings: ATCC 44859, 24 h
[11] = system: Aspergillus fumigatus; assay: Antimicrobial activity against Aspergillus fumigatus 231 after 48 hrs by broth microdilution test; assay type: functional; settings: Aspergillus fumigatus, 231, 48 h
[12] = system: Staphylococcus aureus; assay: Antimicrobial activity against methicillin-resistant Staphylococcus aureus H 5996/08 after 24 hrs by broth microdilution method; assay type: functional; settings: H 5996/08, 24 h
[13] = system: Trichosporon beigelii; assay: Antimicrobial activity against Trichosporon beigelii 1188 after 24 hrs by broth microdilution test; assay type: functional; settings: Trichosporon beigelii, 1188, 24 h
[14] = system: Candida tropicalis; assay: Antimicrobial activity against Candida tropicalis 156 after 48 hrs by broth microdilution test; assay type: functional; settings: Candida tropicalis, 156, 48 h
[15] = system: Trichosporon beigelii; assay: Antimicrobial activity against Trichosporon beigelii 1188 after 48 hrs by broth microdilution test; assay type: functional; settings: Trichosporon beigelii, 1188, 48 h
[16] = system: Staphylococcus aureus; assay: Antimicrobial activity against Staphylococcus aureus CCM 4516/08 after 48 hrs by broth microdilution method; assay type: functional; settings: CCM 4516/08, 48 h
[17] = system: Nakaseomyces glabratus; assay: Antimicrobial activity against Candida glabrata 20/I after 48 hrs by broth microdilution test; assay type: functional
[18] = system: Aspergillus fumigatus; assay: Antimicrobial activity against Aspergillus fumigatus 231 after 24 hrs by broth microdilution test; assay type: functional; settings: Aspergillus fumigatus, 231, 24 h
[19] = system: Candida albicans; assay: Antimicrobial activity against Candida albicans ATCC 44859 after 48 hrs by broth microdilution test; assay type: functional; settings: ATCC 44859, 48 h
[20] = system: Pichia kudriavzevii; assay: Antimicrobial activity against Candida krusei ATCC 6258 after 48 hrs by broth microdilution test; assay type: functional; settings: ATCC 6258, 48 h
[21] = system: Nakaseomyces glabratus; assay: Antimicrobial activity against Candida glabrata 20/I after 24 hrs by broth microdilution test; assay type: functional
[22] = system: Trichophyton mentagrophytes; assay: Antimicrobial activity against Trichophyton mentagrophytes 445 after 72 hrs by broth microdilution test; assay type: functional; settings: Trichophyton mentagrophytes, 445, 72 h
[23] = system: Lichtheimia corymbifera; assay: Antimicrobial activity against Absidia corymbifera 272 after 24 hrs by broth microdilution test; assay type: functional; settings: Lichtheimia corymbifera, 272, 24 h

Row | Structure (SMILES) | MIC90 [1] [µM] | MIC80 [3] [µM] | MIC90 [4] [µM] | MIC80 [5] [µM] | MIC90 [6] [µM] | logP [8] | MIC90 [9] [µM] | MIC80 [10] [µM] | MIC90 [12] [µM] | MIC80 [13] [µM] | MIC80 [14] [µM] | MIC80 [15] [µM] | MIC90 [16] [µM] | MIC80 [17] [µM] | MIC50 [18] [µM] | MIC80 [19] [µM] | MIC80 [20] [µM] | MIC80 [21] [µM] | MIC50 [22] [µM] | MIC50 [23] [µM] | other results
1 | CCOc1ccc(/C=C/c2ccc3c(Cl)cc(Cl)c(O)c3n2)cc1 | 125 (≈ 45 µg/mL) | 125 (≈ 45 µg/mL) | 125 (≈ 45 µg/mL) | 125 (≈ 45 µg/mL) | 125 (≈ 45 µg/mL) | 5.67 | 125 (≈ 45 µg/mL) | 125 (≈ 45 µg/mL) | 125 (≈ 45 µg/mL) | 125 (≈ 45 µg/mL) | 125 (≈ 45 µg/mL) | 125 (≈ 45 µg/mL) | 125 (≈ 45 µg/mL) | > 125 | > 125 | 125 (≈ 45 µg/mL) | 125 (≈ 45 µg/mL) | > 125 | 125 (≈ 45 µg/mL) | > 125 | MIC50 [2]: > 125 µM; MIC50 [7]: 125 µM (≈ 45 µg/mL); MIC50 [11]: > 125 µM
2 | Oc1cc(O)cc(/C=C/c2ccc3c(Cl)cc(Cl)c(O)c3n2)c1 | 125 (≈ 43.5 µg/mL) | > 125 | 31.2 (≈ 10.9 µg/mL) | > 125 | 125 (≈ 43.5 µg/mL) | 4.68 | 125 (≈ 43.5 µg/mL) | > 125 | 125 (≈ 43.5 µg/mL) | > 125 | > 125 | > 125 | 125 (≈ 43.5 µg/mL) | > 125 | – | > 125 | > 125 | > 125 | – | – | –
3 | CCOc1ccccc1/C=C/c1ccc2c(Cl)cc(Cl)c(O)c2n1 | 3.9 (≈ 1.4 µg/mL) | 0.98 (≈ 0.353 µg/mL) | 3.9 (≈ 1.4 µg/mL) | 0.98 (≈ 0.353 µg/mL) | 7.81 (≈ 2.81 µg/mL) | 5.67 | 7.81 (≈ 2.81 µg/mL) | 0.49 (≈ 0.177 µg/mL) | 3.9 (≈ 1.4 µg/mL) | 0.49 (≈ 0.177 µg/mL) | 0.98 (≈ 0.353 µg/mL) | 1.95 (≈ 0.702 µg/mL) | 7.81 (≈ 2.81 µg/mL) | 1.95 (≈ 0.702 µg/mL) | 3.9 (≈ 1.4 µg/mL) | 0.98 (≈ 0.353 µg/mL) | 3.9 (≈ 1.4 µg/mL) | 0.98 (≈ 0.353 µg/mL) | 1.39 (≈ 0.501 µg/mL) | 15.6 (≈ 5.63 µg/mL) | MIC50 [2]: 15.6 µM (≈ 5.63 µg/mL); MIC50 [7]: 1.52 µM (≈ 0.548 µg/mL); MIC50 [11]: 3.9 µM (≈ 1.4 µg/mL)
4 | Oc1cccc2ccc(/C=C/c3ccccc3Cl)nc12 | > 500 | > 500 | > 500 | > 500 | > 500 | 4.9 | > 500 | > 500 | > 500 | > 500 | – | – | > 500 | – | > 500 | – | – | > 500 | > 500 | > 500 | –
5 | Clc1ccccc1/C=C/c1ccc2cccc(Cl)c2n1 | > 500 | > 500 | > 500 | > 500 | > 500 | 5.85 | > 500 | > 500 | > 500 | > 500 | – | – | > 500 | – | > 500 | – | – | > 500 | > 500 | > 500 | –
6 | CCOc1ccc(/C=C/c2ccc3ccccc3n2)cc1 | > 500 | > 500 | > 500 | > 500 | > 500 | 4.61 | > 500 | > 500 | > 500 | > 500 | – | – | > 500 | – | > 500 | – | – | > 500 | > 500 | > 500 | –
7 | Clc1ccccc1/C=C/c1ccc2ccccc2n1 | > 500 | > 500 | > 500 | > 500 | > 500 | 5.25 | > 500 | > 500 | > 500 | > 500 | – | – | > 500 | – | > 500 | – | – | > 500 | > 500 | > 500 | –
8 | O=C(O)c1cn(C2CC2)c2cc(N3CCNCC3)c(F)cc2c1=O [CIPROFLOXACIN] | 0.98 (≈ 0.325 µg/mL) | – | 250 (≈ 82.8 µg/mL) | – | 250 (≈ 82.8 µg/mL) | – | 500 (≈ 166 µg/mL) | – | 500 (≈ 166 µg/mL) | – | – | – | 0.98 (≈ 0.325 µg/mL) | – | – | – | – | – | – | – | –
9 | CCOc1ccccc1/C=C/c1ccc2cccc(O)c2n1 | > 500 | > 500 | > 500 | > 500 | > 500 | 4.55 | > 500 | > 500 | > 500 | > 500 | – | – | > 500 | – | > 500 | – | – | > 500 | > 500 | > 500 | –
10 | Oc1ccccc1/C=C/c1ccc2cccc(O)c2n1 | 62.5 (≈ 16.5 µg/mL) | 125 (≈ 32.9 µg/mL) | 62.5 (≈ 16.5 µg/mL) | 31.2 (≈ 8.23 µg/mL) | 125 (≈ 32.9 µg/mL) | 3.95 | 125 (≈ 32.9 µg/mL) | 31.2 (≈ 8.23 µg/mL) | 62.5 (≈ 16.5 µg/mL) | 31.2 (≈ 8.23 µg/mL) | 500 (≈ 132 µg/mL) | 62.5 (≈ 16.5 µg/mL) | 62.5 (≈ 16.5 µg/mL) | 31.2 (≈ 8.23 µg/mL) | 500 (≈ 132 µg/mL) | 62.5 (≈ 16.5 µg/mL) | 62.5 (≈ 16.5 µg/mL) | 31.2 (≈ 8.23 µg/mL) | 31.2 (≈ 8.23 µg/mL) | 62.5 (≈ 16.5 µg/mL) | MIC50 [2]: > 500 µM; MIC50 [7]: 62.5 µM (≈ 16.5 µg/mL); MIC50 [11]: > 500 µM
